The source of these data is ChEMBL document CHEMBL1152879, “Discovery of GlyT1 inhibitors with improved pharmacokinetic properties” (Bioorg Med Chem Lett, 2009).

Structures are written as SMILES. Activity calls are given as the source filed them. The calls are words filed in the database; no cut-off is given here.

Data set [1] in a line: Oral bioavailability in dog at 1 mg/kg. The data set is classed as ADME, organism-based, Canis lupus familiaris. To be noted: in vivo.
Data set [2] can be described thus: Volume of distribution at steady state in dog at 0.5 mg/kg, iv and 1 mg/kg, po. To be noted: in vivo, read-out: Vdss. The class given is ADME, organism-based, Canis lupus familiaris.
The nature of data set [3]: Half life in dog at 0.5 mg/kg, iv and 1 mg/kg, po. The class given is ADME, organism-based, Canis lupus familiaris. To be noted: in vivo.
A short description of data set [4]: Clearance in dog at 0.5 mg/kg, iv and 1 mg/kg, po. The class given is ADME, organism-based, Canis lupus familiaris. To be noted: in vivo.
For a further data set, the species on record is Homo sapiens. Kind of data set: Activity of human P-glycoprotein.
Data set [5] is described as follows: Clearance in dog at 0.25 mg/kg, iv by cassette dosing. The data set is classed as ADME, organism-based, Canis lupus familiaris. Also on record: dose 0.25 mg/kg, route intravenous. To be noted: in vivo.
Data set [6] relates to Rattus norvegicus. Kind of data set: In vivo plasma occupancy by displacement of [35S]ACPPB from rat GlyT1 in po dosed rat brain. The class given is functional.
The species named for data set [7] is Rattus norvegicus. Kind of data set: Activity of rat P-glycoprotein.
The target in data set [8] is T1, Sodium- and chloride-dependent taurine transporter (Homo sapiens, UniProt P31641).
T1 sequence (P31641 whole entry): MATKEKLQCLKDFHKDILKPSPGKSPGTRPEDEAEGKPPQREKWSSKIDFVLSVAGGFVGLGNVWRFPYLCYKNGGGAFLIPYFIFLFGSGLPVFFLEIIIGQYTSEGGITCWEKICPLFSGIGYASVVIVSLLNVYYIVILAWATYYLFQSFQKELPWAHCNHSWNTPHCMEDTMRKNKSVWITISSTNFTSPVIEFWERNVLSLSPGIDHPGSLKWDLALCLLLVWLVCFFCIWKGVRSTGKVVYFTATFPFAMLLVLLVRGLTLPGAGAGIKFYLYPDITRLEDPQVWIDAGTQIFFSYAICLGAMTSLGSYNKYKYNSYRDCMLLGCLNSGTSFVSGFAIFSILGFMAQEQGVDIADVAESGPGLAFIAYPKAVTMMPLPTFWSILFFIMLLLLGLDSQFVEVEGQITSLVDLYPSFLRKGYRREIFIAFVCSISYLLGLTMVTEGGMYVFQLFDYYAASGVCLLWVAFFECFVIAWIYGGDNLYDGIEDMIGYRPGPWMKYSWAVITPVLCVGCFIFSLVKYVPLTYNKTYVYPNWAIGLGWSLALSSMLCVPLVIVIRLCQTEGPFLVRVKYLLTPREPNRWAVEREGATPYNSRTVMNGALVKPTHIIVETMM
Description: Inhibition of taurine transporter.

Data set [9] is described as follows: Half life in dog at 0.25 mg/kg, iv by cassette dosing. The class given is ADME, organism-based, Canis lupus familiaris. Also on record: dose 0.25 mg/kg, route intravenous. To be noted: in vivo.
Data set [10] has as its target T2, Sodium- and chloride-dependent glycine transporter 2 (Homo sapiens, UniProt Q9Y345).
T2 sequence (Q9Y345 whole entry): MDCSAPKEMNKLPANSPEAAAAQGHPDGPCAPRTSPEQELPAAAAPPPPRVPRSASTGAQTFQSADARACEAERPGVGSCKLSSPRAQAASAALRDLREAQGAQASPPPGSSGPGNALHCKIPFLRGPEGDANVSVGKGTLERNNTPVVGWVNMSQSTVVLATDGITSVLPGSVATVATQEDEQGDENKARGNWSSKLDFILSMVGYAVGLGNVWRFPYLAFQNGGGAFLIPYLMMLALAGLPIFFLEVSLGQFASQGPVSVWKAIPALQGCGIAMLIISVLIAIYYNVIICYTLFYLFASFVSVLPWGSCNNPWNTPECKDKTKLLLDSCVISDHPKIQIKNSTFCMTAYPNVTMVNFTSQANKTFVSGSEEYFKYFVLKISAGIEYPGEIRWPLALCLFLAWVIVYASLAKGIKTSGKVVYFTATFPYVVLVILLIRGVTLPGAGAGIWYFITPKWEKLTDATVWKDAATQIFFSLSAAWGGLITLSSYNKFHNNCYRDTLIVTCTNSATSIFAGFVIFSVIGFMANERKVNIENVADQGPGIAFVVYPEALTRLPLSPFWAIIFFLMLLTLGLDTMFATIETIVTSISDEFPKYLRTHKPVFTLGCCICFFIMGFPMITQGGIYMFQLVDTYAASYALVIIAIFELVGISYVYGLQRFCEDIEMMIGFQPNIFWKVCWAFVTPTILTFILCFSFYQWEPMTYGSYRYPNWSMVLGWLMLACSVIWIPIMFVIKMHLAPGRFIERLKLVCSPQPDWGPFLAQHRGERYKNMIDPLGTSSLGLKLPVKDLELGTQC
Kind of data set: Inhibition of Glyt2.

For data set [11], the target named is T3, Sodium- and chloride-dependent glycine transporter 1 (Homo sapiens, UniProt P48067).
T3 sequence (P48067 whole entry): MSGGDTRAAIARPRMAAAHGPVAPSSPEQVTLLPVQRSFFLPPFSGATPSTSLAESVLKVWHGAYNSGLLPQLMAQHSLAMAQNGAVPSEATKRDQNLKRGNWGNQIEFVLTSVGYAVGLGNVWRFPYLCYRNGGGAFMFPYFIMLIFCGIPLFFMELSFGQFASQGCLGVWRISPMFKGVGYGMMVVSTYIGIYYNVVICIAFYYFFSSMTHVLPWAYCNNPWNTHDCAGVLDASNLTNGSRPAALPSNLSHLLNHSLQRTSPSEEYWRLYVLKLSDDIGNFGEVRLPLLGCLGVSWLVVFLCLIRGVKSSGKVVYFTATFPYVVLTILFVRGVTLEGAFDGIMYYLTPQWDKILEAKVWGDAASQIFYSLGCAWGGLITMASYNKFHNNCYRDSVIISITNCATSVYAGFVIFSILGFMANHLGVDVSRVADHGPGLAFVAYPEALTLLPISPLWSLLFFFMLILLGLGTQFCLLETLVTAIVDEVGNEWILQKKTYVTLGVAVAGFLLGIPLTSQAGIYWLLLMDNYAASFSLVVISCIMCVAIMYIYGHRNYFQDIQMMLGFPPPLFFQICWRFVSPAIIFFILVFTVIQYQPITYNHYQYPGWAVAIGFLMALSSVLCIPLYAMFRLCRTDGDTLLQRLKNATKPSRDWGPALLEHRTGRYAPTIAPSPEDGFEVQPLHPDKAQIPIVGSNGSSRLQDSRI
Kind of data set: (§1) Inhibition of Glyt1.

Another data set concerns MDR1 (human). Kind of data set: Passive permeability from apical to basolateral side of pig LLC-PK1 cells expressing human MDR1. The data set is classed as ADME, cell-based, Sus scrofa. To be noted: read-out: permeability.
Data set [12] has as its target T4, Sodium- and chloride-dependent glycine transporter 1 (Homo sapiens) (UniProt P48067).
T4 sequence (whole entry): T3 sequence (P48067 whole entry)
The data set is described as §1.

One may read the bioavailability as dose-corrected exposure relative to a reference, in per cent. What is called half-life is the time in which the quantity being followed falls by half. `CCS(=O)(=O)N1CCC(CNC(=O)c2ccc(Cl)cc2Cl)(CC2CC2)CC1`: in data set [1], the bioavailability worked out at 38%. In data set [2], the Vd was 2.1 L/kg. In data set [3], the half-life is 11.8 h. The results for the clearance in [4] and in [5] were 2.3 mL/min/kg and 0.84 mL/min/kg, respectively. In addition, the outcome in the data set listed under Homo sapiens and in the data set listed under Rattus norvegicus [7] was inactive. This compound yielded an Occ50 in the data set on Rattus norvegicus [6] of 260 nM.
Usually IC50 stands for the concentration needed to halve the response being measured. Read a low IC50 as greater potency in that assay. As to `CCCS(=O)(=O)N1CCC(CCOC)(CNC(=O)c2ccc(Cl)cc2Cl)CC1`, the concentration for half-maximal inhibition (IC50) in data set [8] is over 30000 nM; in data set [10], over 30000 nM; in data set [11] it was 26.5 nM. This compound displayed a half-life in [9] of under 2 h. Further, the clearance in [5] was over 15 mL/min/kg.
As for `O=C(NCC1(c2ccccn2)CCN(S(=O)(=O)C2CC2)CC1)c1ccc(Cl)cc1Cl`, the half-maximal inhibitory concentration (IC50) in data set [8] was over 30000 nM; in data set [10], over 30000 nM; in [11] it was 200 nM. The half-life in [9] is 7.6 h. The compound also had a clearance in data set [5] of 1.7 mL/min/kg.
In the case of `CCS(=O)(=O)N1CCC(CNC(=O)c2ccc(Cl)cc2Cl)(c2ccccn2)CC1`, the IC50 in data set [8] was over 30000 nM; in [10], over 30000 nM; in data set [11], 57 nM. The same compound gave a half-life in [9] of 8 h. Also, the clearance in [5] came out at 1.4 mL/min/kg.
The compound `CC(C)S(=O)(=O)N1CCC(CNC(=O)c2ccc(Cl)cc2Cl)(c2ccccn2)CC1` returned an IC50 in data set [11] of 220 nM.
`CCCS(=O)(=O)N1CCC(CNC(=O)c2ccc(Cl)cc2Cl)(c2ccccn2)CC1`: the half-maximal inhibitory concentration (IC50) in data set [8] and in data set [10] was over 30000 nM each time. Further, in data set [9], the half-life was 2.3 h. This compound had a clearance in [5] of 15 mL/min/kg.
For `CCCS(=O)(=O)N1CCC(CNC(=O)c2ccc(Cl)cc2Cl)(N2CCC2)CC1`, the half-life in [9] is under 2 h. In data set [5], this compound returned a clearance of over 15 mL/min/kg. The same compound showed an IC50 in data set [11] of 38.1 nM.
In the same order, the values of `CCCS(=O)(=O)N1CCC(CNC(=O)c2ccc(Cl)cc2Cl)(C2CCCCC2OC(C)=O)CC1` (stereo unspecified) are under 2 h, over 15 mL/min/kg and 17.7 nM.
In turn, `CC(O)CS(=O)(=O)N1CCC(CNC(=O)c2ccc(Cl)cc2Cl)(c2ccccn2)CC1` (stereo unspecified) came in with a 50% inhibitory concentration (IC50) in [11] of 86 nM.
In [1], `CCS(=O)(=O)N1CCC(c2ccccn2)([C@H](C)NC(=O)c2ccc(Cl)cc2Cl)CC1` returned a bioavailability of 25%. In addition, the Vd in data set [2] worked out at 1.37 L/kg. Besides, in the data set with MDR1 (human), the Papp A→B turned out to be 37 ×10⁻⁶ cm/s. Further, the half-life in data set [3] was 5 h. The clearance in data set [4] amounted to 3.5 mL/min/kg; in data set [5], 3.6 mL/min/kg. Further, the outcome in the data set listed under Homo sapiens and in the data set filed under Rattus norvegicus [7] was inactive. The Occ50 with Rattus norvegicus [6] worked out at 150 nM. The same compound yielded an Activity in [12] of 11 nM.
Take `CCCS(=O)(=O)N1CCC(CNC(=O)c2ccc(Cl)cc2Cl)(CC2CCCCO2)CC1` (stereo unspecified): the IC50 in data set [8] was over 30000 nM; in data set [10], over 30000 nM; in data set [11] it was 2.9 nM. In [9], the half-life is under 2 h. The clearance in [5] is over 15 mL/min/kg.
Consider `CCCS(=O)(=O)N1CCC(CNC(=O)c2ccc(Cl)cc2Cl)(CC2CC2)CC1`, for which the IC50 is over 30000 nM in data set [8], over 30000 nM in data set [10] and 30 nM in data set [11]. The compound further had a half-life in data set [9] of under 2 h. In addition, the clearance in data set [5] was over 15 mL/min/kg.
`CC(F)CS(=O)(=O)N1CCC(CNC(=O)c2ccc(Cl)cc2Cl)(c2ccccn2)CC1` (stereo unspecified): the IC50 in [8] was over 30000 nM; in data set [10] it was over 30000 nM; in data set [11], 9.7 nM.
In turn, `O=C(NCC1(c2ccccn2)CCN(S(=O)(=O)CC(F)(F)F)CC1)c1ccc(Cl)cc1Cl` had a half-life in data set [9] of 4.9 h. This compound also displayed a clearance in data set [5] of 2.5 mL/min/kg. Half-maximal inhibition in data set [11] (IC50) required 1070 nM.
Regarding `O=C(NCC1(c2ccccn2)CCN(S(=O)(=O)C(F)(F)F)CC1)c1ccc(Cl)cc1Cl`, the IC50 in [11] is over 5000 nM.
In the case of `CCCS(=O)(=O)N1CCC(CNC(=O)c2ccc(Cl)cc2Cl)(C2CCCCC2O)CC1` (stereo unspecified), the results for the IC50 in data set [8], in data set [10] and in data set [11] were over 30000 nM, over 30000 nM and 2.8 nM, respectively. This compound had a half-life in [9] of under 2 h. For the same compound, in data set [5], the clearance was over 15 mL/min/kg.
Take `CN(C)S(=O)(=O)N1CCC(CNC(=O)c2ccc(Cl)cc2Cl)(c2ccccn2)CC1`: the half-life in data set [9] was 1.9 h. In data set [5], this compound had a clearance of 11.8 mL/min/kg. In data set [11], this compound gave a half-inhibitory concentration (IC50) of 77 nM.
Regarding `CS(=O)(=O)N1CCC(CNC(=O)c2ccc(Cl)cc2Cl)(c2ccccn2)CC1`, the half-inhibitory concentration (IC50) in data set [8] is over 30000 nM; in [10] it was over 30000 nM; in data set [11] it was 300 nM. In data set [9], this compound gave a half-life of 8.4 h. Besides, the clearance in data set [5] worked out at 1 mL/min/kg.
In turn, `CCCCS(=O)(=O)N1CCC(CNC(=O)c2ccc(Cl)cc2Cl)(c2ccccn2)CC1` returned an IC50 in data set [11] of 120 nM.
